Results taken from US20260015350A1, “AZAQUINAZOLINE PAN-KRAS INHIBITORS” (Mirati Therapeutics, Inc., priority 2022, published 2026).

Experiments:
[1] = system: KRas-mediated phosphorylation of ERK in H358 cells; assay: Inhibition of KRas-mediated phosphorylation of ERK (Cisbio HTRF pERK), H358 cells; type: cell-based; conditions: Homo sapiens; for inhibition at 0.1 µM: NCI-H358, 3 h, single point, 100 nM compound, 3 hrs; for IC50: NCI-H358, HTRF pERK
Procedure, shortened: (§1)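 Compound treatment lasts 3 hrs on 6,000 seeded cells, testing 10 doses from a 10 uM top concentration in 3-fold decrements at 0.8% final DMSO. Trametinib at 0.2 uM defines the Min signal. Detection is HTRF on cold-lysed cell extracts.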

[2] = system: KRas-mediated phosphorylation of ERK in A549 cells; assay: Inhibition of KRas-mediated phosphorylation of ERK (Cisbio HTRF pERK), A549 cells; type: cell-based; conditions: Homo sapiens; for inhibition at 0.1 µM: A549, 3 h, single point, 100 nM compound, 3 hrs; for IC50: HTRF pERK
Procedure, shortened: (§2)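 Using 6,000 cells per well, compounds are applied for 3 hrs and cells then lysed at 4° C with shaking for 40 mins. Phospho-ERK is measured by HTRF after 2 hrs of lysate incubation with the d2/Cryptate antibody mixture.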

[3] = system: KRas-mediated phosphorylation of ERK in MKN1 cells; assay: Inhibition of KRas-mediated phosphorylation of ERK (Cisbio HTRF pERK), MKN1 cells; type: cell-based; conditions: Homo sapiens, MKN-1
Procedure, shortened: (§3)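 Day 1 seeding: 6,000 cells per well, RPMI/10% FBS, left overnight at 37° C. with 5% CO2. Plates then stood covered for 4 h at room temperature prior to HTRF detection of pERK.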

KRas^G12V = biological target: T1, KRas^G12V (Homo sapiens, UniProt P01116, G12V); assay: KRas binding assay (TR-FRET tracer displacement), KRas G12V
T1 construct: Biotinylated KRas (corresponding to amino acids 1-169, produced at Accelegan Inc.); biotin (biotinylated); purchased Accelegan Inc

[4] = system: KRas-mediated phosphorylation of ERK in AsPC-1 cells; assay: Inhibition of KRas-mediated phosphorylation of ERK (Cisbio HTRF pERK), AsPC-1 cells; type: cell-based; conditions: Homo sapiens; for IC50: ASPC1, AsPC-1 cells, HTRF pERK; for inhibition at 0.1 µM: ASPC1, 3 h, single point, 100 nM compound, 3 hrs, AsPC-1 cells
Procedure, shortened: as §1

[5] = system: KRas-mediated phosphorylation of ERK in H460 cells; assay: Inhibition of KRas-mediated phosphorylation of ERK (Cisbio HTRF pERK), H460 cells; type: cell-based; conditions: Homo sapiens; for inhibition at 0.1 µM: NCI-H460, 3 h, single point, 100 nM compound, 3 hrs; for IC50: NCI-H460, HTRF pERK
Procedure, shortened: as §1

KRas^G12R = biological target: T2, KRas^G12R (Homo sapiens, UniProt P01116, G12R); assay: KRas binding assay (TR-FRET tracer displacement), KRas G12R
T2 construct: Biotinylated KRas (corresponding to amino acids 1-169, produced at Accelegan Inc.); biotin (biotinylated); purchased Accelegan Inc

[6] = system: KRas-mediated phosphorylation of ERK in HCT116 cells; assay: Inhibition of KRas-mediated phosphorylation of ERK (Cisbio HTRF pERK), HCT116 cells; type: cell-based; conditions: Homo sapiens; for inhibition at 0.1 µM: HCT-116, 3 h, single point, 100 nM compound, 3 hrs; for IC50: HCT-116, HTRF pERK
Procedure, shortened: as §2

KRas^G12D = biological target: T3, KRas^G12D (Homo sapiens, UniProt P01116, G12D); assay: KRas binding assay (TR-FRET tracer displacement), KRas G12D
T3 construct: Biotinylated KRas (corresponding to amino acids 1-169, produced at Accelegan Inc.); biotin (biotinylated); purchased Accelegan Inc

[7] = system: KRas-mediated phosphorylation of ERK in PSN1 cells; assay: Inhibition of KRas-mediated phosphorylation of ERK (Cisbio HTRF pERK), PSN1 cells; type: cell-based; conditions: Homo sapiens
Procedure, shortened: as §3

[8] = system: KRas-mediated phosphorylation of ERK in H727 cells; assay: Inhibition of KRas-mediated phosphorylation of ERK (Cisbio HTRF pERK), H727 cells; type: cell-based; conditions: Homo sapiens; for IC50: NCI-H727, H727 cells, HTRF pERK; for inhibition at 0.1 µM: NCI-H727, 3 h, single point, 100 nM compound, 3 hrs, H727 cells
Procedure, shortened: as §1

T1 sequence (P01116 1-169 isoform P01116-2 G12V): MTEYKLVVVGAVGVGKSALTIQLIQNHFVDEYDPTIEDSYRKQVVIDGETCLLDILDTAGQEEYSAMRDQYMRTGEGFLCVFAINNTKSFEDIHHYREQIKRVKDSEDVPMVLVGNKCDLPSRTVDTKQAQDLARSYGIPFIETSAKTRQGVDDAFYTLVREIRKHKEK
T3 sequence (P01116 1-169 isoform P01116-2 G12D): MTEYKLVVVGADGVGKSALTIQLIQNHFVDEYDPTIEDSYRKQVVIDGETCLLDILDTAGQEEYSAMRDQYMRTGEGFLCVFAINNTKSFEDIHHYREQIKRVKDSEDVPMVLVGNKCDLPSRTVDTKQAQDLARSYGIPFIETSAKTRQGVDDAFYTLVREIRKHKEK
T2 sequence (P01116 1-169 isoform P01116-2 G12R): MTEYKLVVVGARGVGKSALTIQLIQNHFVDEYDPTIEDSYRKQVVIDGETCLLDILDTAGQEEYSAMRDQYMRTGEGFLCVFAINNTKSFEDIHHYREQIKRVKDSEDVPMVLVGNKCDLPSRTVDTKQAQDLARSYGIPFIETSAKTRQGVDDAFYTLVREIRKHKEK

Row | SMILES | inhibition at 0.1 µM [1] [%] | inhibition at 0.1 µM [2] [%] | IC50 [3] [nM] | IC50 (KRas^G12V) [nM] | IC50 [4] [nM] | inhibition at 0.1 µM [5] [%] | IC50 (KRas^G12R) [nM] | inhibition at 0.1 µM [6] [%] | IC50 (KRas^G12D) [nM] | IC50 [7] [nM] | IC50 [8] [nM] | IC50 [1] [nM] | IC50 [2] [nM] | IC50 [5] [nM] | IC50 [6] [nM] | inhibition at 0.1 µM [4] [%] | inhibition at 0.1 µM [8] [%]
1 | C#Cc1c(F)ccc2cc(O)cc(-c3ncc4c(N5CCC[C@@](C)(O)C5)nc(OC[C@]56CCCN5[C@H](COC(=O)N(C)C)CC6)nc4c3F)c12 [Example 753, ((3S,7aR)-7a-(((7-(8-ethynyl-7-fluoro-3-hydroxynaphthalen-1-yl)-8-fluoro-4-((R)-3-hydroxy-3-methylpiperidin-1-yl)pyrido[4,3-d]pyrimidin-2-yl)oxy)methyl)hexahydro-1H-pyrrolizin-3-yl)methyl dimethylcarbamate] | 76 | 2 | 14 | < 2 | 69 | 42 | 2 | 23 | < 2 | 3080 | 83 | – | – | – | – | – | –
2 | O=C1CC2(CCCN(c3nc(OC[C@@]45CCCN4C[C@H](F)C5)nc4c(F)c(-c5cc(O)cc6ccc(F)c(Cl)c56)ncc34)C2)C(=O)N1 (stereo partly drawn) [Example 774, 7-(7-(8-chloro-7-fluoro-3-hydroxynaphthalen-1-yl)-8-fluoro-2-(((2R,7aS)-2-fluorohexahydro-1H-pyrrolizin-7a-yl)methoxy)pyrido[4,3-d]pyrimidin-4-yl)-2,7-diazaspiro[4.5]decane-1,3-dione] | – | – | 123 | < 2 | 852 | – | < 2 | – | 2 | 2340 | 138 | 121 | 924 | 434 | 506 | – | –
3 | CCc1c(F)ccc2cc(O)cc(-c3ncc4c(N5CCC[C@@](C)(O)C5)nc(OCC5(CN(C)C)CC56CC6)nc4c3F)c12 (stereo partly drawn) [Example 783, (3R)-1-(2-((1-((dimethylamino)methyl)spiro[2.2]pentan-1-yl)methoxy)-7-(8-ethyl-7-fluoro-3-hydroxynaphthalen-1-yl)-8-fluoropyrido[4,3-d]pyrimidin-4-yl)-3-methylpiperidin-3-ol] | 62 | 34 | 19 | 2 | 52 | 47 | 5 | 31 | 2 | 9780 | 187 | – | – | – | – | 47 | 12
4 | CCc1c(F)ccc2cc(O)cc(-c3ncc4c(N5CCC[C@@](C)(O)C5)nc(OC[C@@]56CCCN5[C@@H](CNS(=O)(=O)N(C)C)CC6)nc4c3F)c12 [Example 788, (R)-1-(7-(8-ethyl-7-fluoro-3-hydroxynaphthalen-1-yl)-8-fluoro-2-(((3R,7aS)-3-(((dimethylsulfamoyl)amino)methyl)tetrahydro-1H-pyrrolizin-7a(5H)-yl)methoxy)pyrido[4,3-d]pyrimidin-4-yl)-3-methylpiperidin-3-ol] | 75 | 38 | 13 | < 2 | 73 | 47 | 4 | 33 | 2 | 2840 | 211 | – | – | – | – | 45 | 41
5 | CCc1c(F)ccc2cc(O)cc(-c3ncc4c(N5CCC[C@@](C)(O)C5)nc(OC[C@@]56CCCN5[C@H](CNS(=O)(=O)N(C)C)CC6)nc4c3F)c12 [Example 789, (R)-1-(7-(8-ethyl-7-fluoro-3-hydroxynaphthalen-1-yl)-8-fluoro-2-(((3S,7aS)-3-(((dimethylsulfamoyl)amino)methyl)tetrahydro-1H-pyrrolizin-7a(5H)-yl)methoxy)pyrido[4,3-d]pyrimidin-4-yl)-3-methylpiperidin-3-ol] | 97 | 57 | 6 | < 2 | 32 | 76 | < 2 | 55 | < 2 | 1750 | 116 | – | – | – | – | 77 | 43
6 | CCc1c(F)ccc2cc(O)cc(-c3ncc4c(N5CCC[C@@](C)(O)C5)nc(OCC56CCCN5CC(=C(F)F)C6)nc4c3F)c12 (stereo partly drawn) [Example 792, (3R)-1-(2-((2-(difluoromethylene)tetrahydro-1H-pyrrolizin-7a(5H)-yl)methoxy)-7-(8-ethyl-7-fluoro-3-hydroxynaphthalen-1-yl)-8-fluoropyrido[4,3-d]pyrimidin-4-yl)-3-methylpiperidin-3-ol] | – | – | 2 | < 2 | 4 | – | 2 | – | 2 | 744 | 32 | 8 | 9 | 4 | 13 | – | –
7 | C[C@@H]1C[C@@H]1c1c(Cl)cc(O)cc1-c1ncc2c(N3CCC[C@@](C)(O)C3)nc(OC[C@@]34CCCN3C[C@H](F)C4)nc2c1F [Example 805, (R)-1-(7-(3-chloro-5-hydroxy-2-((1S,2R)-2-methylcyclopropyl)phenyl)-8-fluoro-2-(((2R,7aS)-2-fluorotetrahydro-1H-pyrrolizin-7a(5H)-yl)methoxy)pyrido[4,3-d]pyrimidin-4-yl)-3-methylpiperidin-3-ol] | – | – | 1 | < 2 | 13 | – | 3 | – | < 2 | 812 | 29 | 8 | 23 | 10 | 24 | – | –
8 | CCc1c(F)ccc2cc(O)cc(-c3ncc4c(N5CC6CCC(CO)(C6)C5)nc(OC[C@@]56CCCN5C[C@H](F)C6)nc4c3F)c12 (stereo partly drawn) [Example 812, 5-ethyl-6-fluoro-4-(8-fluoro-2-(((2R,7aS)-2-fluorotetrahydro-1H-pyrrolizin-7a(5H)-yl)methoxy)-4-(1-(hydroxymethyl)-3-azabicyclo[3.2.1]octan-3-yl)pyrido[4,3-d]pyrimidin-7-yl)naphthalen-2-ol] | – | – | 68 | 4 | 743 | – | 6 | – | 12 | > 10000 | 363 | 177 | 922 | 166 | 324 | – | –
9 | CCc1c(F)ccc2cc(O)cc(-c3ncc4c(N5CCC[C@@](C)(O)C5)nc(OCC5(CN(C)C)C(C)C5C)nc4c3F)c12 (stereo partly drawn) [Example 818, (3R)-1-(2-((1-((dimethylamino)methyl)-2,3-dimethylcyclopropyl)methoxy)-7-(8-ethyl-7-fluoro-3-hydroxynaphthalen-1-yl)-8-fluoropyrido[4,3-d]pyrimidin-4-yl)-3-methylpiperidin-3-ol] | – | – | 61 | 3 | 135 | – | 8 | – | 3 | > 10000 | 347 | 121 | 212 | 167 | 345 | – | –
10 | CCc1c(F)ccc2cc(O)cc(-c3ncc4c(N5CC6CCC(C(=O)N(C)C)(C6)C5)nc(OC[C@@]56CCCN5C[C@H](F)C6)nc4c3F)c12 (stereo partly drawn) [Example 824, 3-(7-(8-ethyl-7-fluoro-3-hydroxynaphthalen-1-yl)-8-fluoro-2-(((2R,7aS)-2-fluorotetrahydro-1H-pyrrolizin-7a(5H)-yl)methoxy)pyrido[4,3-d]pyrimidin-4-yl)-N,N-dimethyl-3-azabicyclo[3.2.1]octane-1-carboxamide] | – | – | 167 | 4 | 165 | – | 8 | – | 11 | > 10000 | 174 | 69 | 143 | 136 | 502 | – | –
